Consider 7 compounds from patent US10214710B2, “Intercalated bleach compositions, related methods of manufacture and use” (The Clorox Company, priority 2013, dated 2019).

Data set [1] is described as follows: Differential scanning calorimetry (DSC) thermodynamic stability and adjuvant compatibility. The class given is physicochemical. Background: Differential scanning calorimetry records heat flow against a reference as temperature is scanned.
Data set [2] in a line: Relative ratings of solid hypochlorite bleach products. The settings on record: relative rating.
A short description of data set [3]: pH buffering and hypochlorite release on HCl addition. The class given is physicochemical. The procedure:
The buffering characteristics of the MIB compositions, as well as the ability to accelerate release of hypochlorite through addition of an acid were tested. It is believed that the MgO and/or Mg(OH)2 component present within the intercalated bleach compound acts to buffer the pH to a preferred region (e.g., about 8 to about 11.5) for enhanced hypochlorite stability. FIG. 4A plots the pH profile over time as hydrochloric acid (HCl) is added to the MIB aqueous solution at periodic intervals.
FIG. 4B plots the concentration of hypochlorite in solution (ppm of OCl) as a function of how many millimoles of HCl are added.
FIGS. 5A-5B plot similar data as described above with respect to FIGS. 4A-4B, but for a dibasic magnesium hypochlorite composition including 34% available chlorine by weight. […] As such, the dibasic magnesium hypochlorite is not capable of maintaining a relatively high pH for the solution, as are the MIB compositions. Such improved buffering capacity (i.e., the ability to maintain a higher pH for longer) greatly improves the stability of the bleach composition.

Data set [4] in a line: Humidity stability, storage at 80° F. and 80% relative humidity. The class given is physicochemical. The procedure:
In addition to the stability testing described above, the magnesium intercalated bleach compositions were tested for their resistance to humidity (i.e., their ability to resist degradation upon exposure to humidity). The results were compared with the humidity stability of alternative solid hypochlorite releasing products, specifically dibasic magnesium hypochlorite and a mixture of calcium hypochlorite and magnesium oxide. […] As shown, the initial weight percent hypochlorite was measured. Some samples were stored open, while others were stored closed, and the weight percentage of remaining hypochlorite was measured after the 2 month storage.
Two MIB samples were tested.

With `[Ca+2].[O-]Cl.[O-]Cl` [Calcium hypochlorite, calcium hypochlorite], the “energy given off in exothermic decomposition” value in data set [1] (FIG. 7B) is recorded as 401 J/g. The decomposition reaction temperature result in data set [1] (endothermic for MIB, exothermic for calcium hypochlorite) was “about 212 °C”. In data set [2], the “Bleach Stability” value turned out to be 3, the “Moisture Tolerance” value was found to be 3 and the “Solution Clarity” value was 3.

Take “Mg(OCl)2.2Mg(OH)2 [dibasic magnesium hypochlorite]”: the “hypochlorite (bleach) release as a function of HCl added” value in data set [3] (FIG. 4B / 5B) is “not significantly aided by acid addition”. Further, the “pH (buffering) recovery after HCl addition” value in data set [3] (HCl added at periodic intervals, FIG. 4A / 5A) was “significantly slower and less complete”. The “hypochlorite remaining, open sample” value in data set [4] (2 months, 80° F., 80% relative humidity, stored open) is given as about 0 % by weight. Besides, in data set [4] (before the 2 month storage, FIG. 3A), the initial hypochlorite concentration entry is given as “about 25 % by weight”.

Consider `[Li+].[O-]Cl` [Li(OCl)2, lithium hypochlorite], for which, in data set [2], the “Bleach Stability” value turned out to be 1, the “Moisture Tolerance” value is given as 3 and the “Solution Clarity” value was found to be 5.

As for Trichloromelamine, in data set [2], the “Moisture Tolerance” value was determined as 3 and the “Solution Clarity” value came to 1.

For the compound “sodium hypochlorite phosphate adduct [Na(OCl)2 phosphate adduct]”, in data set [2], the “Bleach Stability” value worked out at 1, the “Moisture Tolerance” value was 3 and the “Solution Clarity” value is listed as 5.

With `O=C1CN(Cl)C(=O)N1Cl` [Dichlorohydantoin], in data set [2], the “Bleach Stability” value was determined as 5, the “Moisture Tolerance” value is listed as 1 and the “Solution Clarity” value is 1.

As to `O=c1nc([O-])n(Cl)c(=O)n1Cl.[Na+]` [sodium dichloroisocyanurate], the exothermic decomposition reactions entry in data set [1] (temperature range of 10° C. to 200° C., FIG. 7C) is reported as “no exothermic decomposition reactions”.
